The values that follow come from paper PMC11326381, “Structural Study of Selectivity Mechanisms for JNK3 and p38α with Indazole Scaffold Probing Compounds” (Research Square, 2024).

pIC50: −log10 of the molar value.

In assay [1] the test system is JNK1. Conditions: cited from earlier work.
Assay [2] addresses JNK3 (Homo sapiens, UniProt P53779). In words: HTRF enzyme inhibition assay, JNK3. The class given is biochemical. As to the method: Homogeneous Time-resolved Fluorescence Assay (HTRF)
Enzyme inhibition assays to determine IC50 values for the kinases were performed as described previously.

Sequence of JNK3 (P53779 whole entry): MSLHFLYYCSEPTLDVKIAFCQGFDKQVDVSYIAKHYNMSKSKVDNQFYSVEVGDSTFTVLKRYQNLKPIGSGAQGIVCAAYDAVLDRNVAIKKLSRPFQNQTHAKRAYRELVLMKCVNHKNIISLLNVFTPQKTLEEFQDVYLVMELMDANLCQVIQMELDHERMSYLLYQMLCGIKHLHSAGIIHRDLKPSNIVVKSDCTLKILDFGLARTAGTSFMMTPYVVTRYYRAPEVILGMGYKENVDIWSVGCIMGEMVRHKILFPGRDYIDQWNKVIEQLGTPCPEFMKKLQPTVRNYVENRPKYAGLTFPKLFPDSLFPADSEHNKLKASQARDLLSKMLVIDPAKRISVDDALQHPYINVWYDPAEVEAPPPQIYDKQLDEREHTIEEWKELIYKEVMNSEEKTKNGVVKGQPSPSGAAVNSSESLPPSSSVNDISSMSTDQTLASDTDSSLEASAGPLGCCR

For `Cc1ccc(-n2nc(C(C)(C)C)cc2NC(=O)Nc2ccc(OCCN3CCOCC3)c3ccccc23)cc1` [BIRB796], the “affinity for JNK1” value in assay [1] is given as “no affinity”.

For orientation: pIC50 means the IC50 on a negative log10 scale, so that one unit is a factor of ten. Read a low pIC50 as a large IC50. On to `CNC(=O)c1cc(-n2ncc3cc(Nc4c(F)cccc4Cl)c(CN4CCC4)cc32)cs1` [Compound 21G], for which, in assay [2], the pIC50 is 6.86.

`CNC(=O)c1cc(-n2ncc3cc(Nc4c(F)cccc4Cl)c(COC)cc32)cs1` [Compound 21J]: the pIC50 in assay [2] is 8.22.

In the case of `COc1ccccc1Nc1cc2cnn(-c3cc(C(=O)NC4COC4)sc3C)c2cc1F` [Compound 23GA], the pIC50 in assay [2] is 6.00. In assay [2], `COc1ccccc1Nc1cc2cnn(-c3csc(C(=O)NC4COC4)c3)c2cc1F` [Compound 23M] showed a pIC50 of 7.85.
